Experimental findings from ChEMBL document CHEMBL4602697 (J Med Chem, 2020) are described below.

Data set [1] in a line: Metabolic stability in Sprague-Dawley rat liver microsomes assessed as parent compound remaining at 20 uM measured for 120 mins by HPLC/MS analysis relative to control. The conditions noted are these: read-out: Stability. Type of data set: ADME, Microsome. A general note: Liver microsomes are vesicles of endoplasmic reticulum, rich in cytochrome P450 enzymes.
Data set [2] deals with T1, Muscarinic acetylcholine receptor M2 (Rattus norvegicus, UniProt P10980).
T1 sequence (P10980 whole entry): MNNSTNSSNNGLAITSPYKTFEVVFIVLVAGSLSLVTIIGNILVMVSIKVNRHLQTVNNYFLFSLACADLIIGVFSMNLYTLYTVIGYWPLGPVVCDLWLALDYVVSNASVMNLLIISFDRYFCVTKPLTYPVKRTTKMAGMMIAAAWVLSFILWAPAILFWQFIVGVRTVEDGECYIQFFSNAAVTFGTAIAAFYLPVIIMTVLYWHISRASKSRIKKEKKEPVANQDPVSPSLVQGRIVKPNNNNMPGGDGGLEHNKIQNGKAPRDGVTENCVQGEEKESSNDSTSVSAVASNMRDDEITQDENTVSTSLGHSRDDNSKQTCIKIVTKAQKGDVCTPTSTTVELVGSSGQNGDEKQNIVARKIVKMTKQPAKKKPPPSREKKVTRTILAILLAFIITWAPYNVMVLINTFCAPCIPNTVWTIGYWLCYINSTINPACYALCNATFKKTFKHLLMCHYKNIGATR
In words: Displacement of [3H]-QNB from Wistar rat heart muscarinic M2 receptor. On the technique in general: In a radioligand displacement assay an active substance lowers the binding of a labelled ligand.

For data set [3], the target named is Muscarinic acetylcholine receptor M3 (Rattus norvegicus, UniProt P08483). In words: Displacement of [3H]-NMS from Wistar rat salivary gland muscarinic M3 receptor.
In data set [4] the target is T2, Muscarinic acetylcholine receptor M1 (Rattus norvegicus, UniProt P08482).
T2 sequence (P08482 whole entry): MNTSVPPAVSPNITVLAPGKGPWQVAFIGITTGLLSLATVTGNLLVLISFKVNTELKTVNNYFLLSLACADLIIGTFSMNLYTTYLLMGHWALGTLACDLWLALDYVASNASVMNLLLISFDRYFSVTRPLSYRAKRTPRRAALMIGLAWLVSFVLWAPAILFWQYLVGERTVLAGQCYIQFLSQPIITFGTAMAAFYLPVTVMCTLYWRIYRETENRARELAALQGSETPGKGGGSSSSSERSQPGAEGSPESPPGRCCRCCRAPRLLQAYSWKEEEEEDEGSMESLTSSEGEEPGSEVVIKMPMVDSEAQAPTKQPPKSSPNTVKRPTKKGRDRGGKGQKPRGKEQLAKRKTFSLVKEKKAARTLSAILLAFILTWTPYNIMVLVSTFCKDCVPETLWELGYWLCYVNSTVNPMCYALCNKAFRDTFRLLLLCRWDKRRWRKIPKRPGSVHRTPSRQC
In words: Displacement of [3H]pirenzepin from Wistar rat cortex muscarinic M1 receptor.

A short description of data set [5]: Permeability across apical to basolateral side in human Caco2 cells coexpressing Pgp at 5 uM measured for 3 hrs by UPLC/MS analysis relative to control. Type of data set: ADME, cell-based. The conditions noted are these: caco-2, 3 h. A general note: Caco-2 cells form a polarised layer with tight junctions and transporters.
A short description of data set [6]: Permeability across apical to basolateral side in human Caco2 cells coexpressing Pgp at 5 uM in presence of P-gp inhibitor valspodar measured for 3 hrs by UPLC/MS analysis. The data set is classed as ADME, cell-based. The following applies: caco-2, 3 h.
A short description of data set [7]: Permeability across basolateral to apical side in human Caco2 cells coexpressing Pgp at 5 uM in presence of P-gp inhibitor valspodar measured for 3 hrs by UPLC/MS analysis. The data set is classed as ADME, cell-based. The conditions noted are these: caco-2, 3 h.
Data set [8] in a line: Permeability across basolateral to apical side in human Caco2 cells coexpressing Pgp at 5 uM measured for 3 hrs by UPLC/MS analysis relative to control. Type of data set: ADME, cell-based. The conditions noted are these: caco-2, 3 h.
Data set [9] concerns the target Muscarinic receptor M2 and M3 (Rattus norvegicus) (UniProt P08483+P10980). The data set is described as follows: Ratio of Ki for displacement of [3H]-QNB from Wistar rat heart muscarinic M2 receptor to Ki for displacement of [3H]-NMS from Wistar rat salivary gland muscarinic M3 receptor. Type of data set: protein assay.
For another data set, the species on record is Rattus norvegicus. The data set is described as follows: Ratio of Ki for displacement of [3H]pirenzepin from Wistar rat cortex muscarinic M1 receptor to Ki for displacement of [3H]-NMS from Wistar rat salivary gland muscarinic M3 receptor.

Sequence of Muscarinic acetylcholine receptor M3 (P08483 whole entry): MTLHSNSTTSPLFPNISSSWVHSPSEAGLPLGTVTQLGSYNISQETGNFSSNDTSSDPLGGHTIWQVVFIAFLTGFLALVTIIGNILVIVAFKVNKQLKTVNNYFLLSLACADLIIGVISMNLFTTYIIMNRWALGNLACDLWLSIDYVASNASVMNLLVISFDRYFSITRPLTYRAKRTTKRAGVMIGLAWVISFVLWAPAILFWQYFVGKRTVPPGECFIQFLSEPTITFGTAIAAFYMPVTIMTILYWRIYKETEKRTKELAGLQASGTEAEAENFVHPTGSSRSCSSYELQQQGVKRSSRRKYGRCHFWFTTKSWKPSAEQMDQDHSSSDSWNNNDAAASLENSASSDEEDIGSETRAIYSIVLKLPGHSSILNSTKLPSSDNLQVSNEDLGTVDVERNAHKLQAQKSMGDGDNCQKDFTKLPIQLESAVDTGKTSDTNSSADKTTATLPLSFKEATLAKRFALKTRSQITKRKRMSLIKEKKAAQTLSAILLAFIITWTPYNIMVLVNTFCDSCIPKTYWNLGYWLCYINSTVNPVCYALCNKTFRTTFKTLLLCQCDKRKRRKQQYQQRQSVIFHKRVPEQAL
Sequence of Muscarinic receptor M2 and M3 (Rattus norvegicus) (P08483 whole entry, looked up, one chain of several): as the sequence (P08483 whole entry) above

As for `O=C(Nc1ccc(F)cc1-c1cccc(Cl)c1)OCC1CCNCC1`, the remaining at 2 h, 20 µM in data set [1] came out at 53%.
For orientation: Ki means the dissociation constant of the complex between target and ligand, obtained from inhibition or displacement. A higher Ki goes with lower affinity. With `O=C(Nc1ccccc1-c1ccccc1)O[C@H]1CN2CCC1CC2`, the Ki in data set [2] turned out to be 7.6 nM; in data set [3], 0.47 nM; in data set [4], 0.65 nM.
For `O=C(Nc1ccc(F)cc1-c1ccc(F)c(Cl)c1)OCC1CCNCC1`, the remaining at 2 h, 20 µM in data set [1] was 74%.
On the same count and under the same terms, in the case of `C[N+]12CCC(CC1)[C@@H](OC(=O)Nc1ccc(F)cc1-c1ccc(F)c(Cl)c1)C2` it was 63%.
`C[C@H]1O[C@@H](O[C@H]2[C@@H](O)C[C@H](O[C@H]3[C@@H](O)C[C@H](O[C@H]4CC[C@@]5(C)[C@H](CC[C@@H]6[C@@H]5C[C@@H](O)[C@]5(C)[C@@H](C7=CC(=O)OC7)CC[C@]65O)C4)O[C@@H]3C)O[C@@H]2C)C[C@H](O)[C@@H]1O` [DIGOXIN]: the permeability in data set [5] was 6.7%; in data set [6], 10.2%; in data set [7], 10.5%; in data set [8], 19.9%.
In the case of `C[N+]12CCC(CC1)[C@@H](OC(=O)Nc1ccc(F)cc1-c1cccc(Cl)c1)C2`, in data set [1], the remaining at 2 h, 20 µM amounted to 65%.
With `O=C(Nc1ccccc1-c1ccccc1)OC1CCNCC1`, the Ratio Ki in data set [9] came out at 10; in the data set filed under Rattus norvegicus, 1.2. For the same compound, the Ki was found to be 270 nM in data set [2], 27 nM in data set [3] and 32 nM in data set [4].
